One test has as its target T1, SHP2 (full length) (Homo sapiens, UniProt Q06124).
T1 construct: SHP2 (full length, diluted to 100 pM final concentration in reaction buffer, BPS bioscience, US); purchased BPS bioscience, US
T1 sequence (Q06124 1-593): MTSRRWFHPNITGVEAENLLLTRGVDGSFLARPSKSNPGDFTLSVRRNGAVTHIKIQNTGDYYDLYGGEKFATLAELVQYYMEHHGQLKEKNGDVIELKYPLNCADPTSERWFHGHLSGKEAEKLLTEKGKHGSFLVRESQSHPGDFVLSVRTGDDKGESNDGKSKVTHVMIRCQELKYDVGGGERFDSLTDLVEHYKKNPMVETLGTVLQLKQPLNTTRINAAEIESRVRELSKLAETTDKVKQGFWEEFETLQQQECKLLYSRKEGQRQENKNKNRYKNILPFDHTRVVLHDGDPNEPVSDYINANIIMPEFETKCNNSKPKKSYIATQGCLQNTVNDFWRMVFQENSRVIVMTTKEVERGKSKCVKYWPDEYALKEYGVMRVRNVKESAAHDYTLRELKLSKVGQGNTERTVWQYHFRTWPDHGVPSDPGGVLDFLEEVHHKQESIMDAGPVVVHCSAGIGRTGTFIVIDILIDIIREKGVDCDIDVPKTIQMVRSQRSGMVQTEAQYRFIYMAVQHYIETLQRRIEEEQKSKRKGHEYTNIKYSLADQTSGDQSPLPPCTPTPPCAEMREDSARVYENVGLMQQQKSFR
Nature of the test: Phosphatase assay (PTPase assay) with DiFMUP substrate. As to conditions: SHP2 activated with SHP2 activating peptide; DiFMUP 80 μM, 2 hours; fluorescence; read-out: IC50 (PTPase aS say). Format: biochemical.

Test [1] relates to phospho-ERK in MIA PaCa2 or H358 cells. Nature of the test: Phospho-ERK assay (AlphaLisa). Format: cell-based. As to conditions: 1.5 h, MIA PaCa2 or H358 cells, compound incubated 1.5 hours; read-out: IC50 (p-ERK).

`Cn1c(N2CCC(C)(N)CC2)nc(N)c(Sc2ccc3ncn(-c4ccccc4)c(=O)c3c2Cl)c1=O` [Example 30, 6-((4-amino-2-(4-amino-4-methylpiperidin-1-yl)-1-methyl-6-oxo-1,6-dihydropyrimidin-5-yl)thio)-5-chloro-3-phenylquinazolin-4(3H)-one]: the IC50 is more than 100 nM on SHP2 (full length) and more than 1500 nM in test [1].

As for `C[C@@H]1OCC2(CCN(c3cnc(Sc4ccc5ncn(Cc6cccc(C#N)c6)c(=O)c5c4Cl)cn3)CC2)[C@@H]1N` [Example 31, 3-((6-((5-((3S,4S)-4-amino-3-methyl-2-oxa-8-azaspiro[4.5]decan-8-yl)pyrazin-2-yl)thio)-5-chloro-4-oxoquinazolin-3(4H)-yl)methyl)benzonitrile], the IC50 at SHP2 (full length) was less than 3 nM; in test [1] it was less than 45 nM.

For the compound `CC(c1ccccc1)n1cnc2ccc(Sc3cnc(N4CCC5(CC4)CO[C@@H](C)[C@H]5N)cn3)c(Cl)c2c1=O` (stereo partly drawn) [Example 32, 6-((5-((3S,4S)-4-amino-3-methyl-2-oxa-8-azaspiro[4.5]decan-8-yl)pyrazin-2-yl)thio)-5-chloro-3-(1-phenylethyl)quinazolin-4(3H)-one], the IC50 on SHP2 (full length) is less than 3 nM; in test [1] it was 45 to 1500 nM.

As to `C[C@@H]1OCC2(CCN(c3cnc(Sc4ccc5ncn(Cc6cccc(F)c6)c(=O)c5c4Cl)cn3)CC2)[C@@H]1N` [Example 33, 6-((5-((3S,4S)-4-amino-3-methyl-2-oxa-8-azaspiro[4.5]decan-8-yl)pyrazin-2-yl)thio)-5-chloro-3-(3-fluorobenzyl)quinazolin-4(3H)-one], the IC50 is less than 3 nM at SHP2 (full length) and 45 to 1500 nM in test [1].

Regarding `C[C@@H]1OCC2(CCN(c3cnc(Sc4ccc5ncn(Cc6cccc(C(F)(F)F)c6)c(=O)c5c4Cl)cn3)CC2)[C@@H]1N` [Example 34], the half-maximal inhibitory concentration (IC50) at SHP2 (full length) fell in the range of 3 to 100 nM; in test [1] it was 45 to 1500 nM.

For the compound `C[C@@H]1OCC2(CCN(c3cnc(Sc4ccc5ncn(Cc6nccs6)c(=O)c5c4Cl)cn3)CC2)[C@@H]1N` [Example 35, 6-((5-((3S,4S)-4-amino-3-methyl-2-oxa-8-azaspiro[4.5]decan-8-yl)pyrazin-2-yl)thio)-5-chloro-3-(thiazol-2-ylmethyl)quinazolin-4(3H)-one], the 50% inhibitory concentration (IC50) at SHP2 (full length) was less than 3 nM; in test [1], less than 45 nM.

Regarding `COc1cccc(Cn2cnc3ccc(Sc4cnc(N5CCC6(CC5)CO[C@@H](C)[C@H]6N)cn4)c(Cl)c3c2=O)c1` [Example 36, 6-((5-((3S,4S)-4-amino-3-methyl-2-oxa-8-azaspiro[4.5]decan-8-yl)pyrazin-2-yl)thio)-5-chloro-3-(3-methoxybenzyl)quinazolin-4(3H)-one], the IC50 on SHP2 (full length) was less than 3 nM; in test [1], less than 45 nM.

In the case of `C[C@@H]1OCC2(CCN(c3cnc(Sc4ccc5ncn(Cc6nc7ccccc7[nH]6)c(=O)c5c4Cl)cn3)CC2)[C@@H]1N` [Example 37, 3-((1H-benzo[d]imidazol-2-yl)methyl)-6-((5-((3S,4S)-4-amino-3-methyl-2-oxa-8-azaspiro[4.5]decan-8-yl)pyrazin-2-yl)thio)-5-chloroquinazolin-4(3H)-one], the IC50 on SHP2 (full length) is less than 3 nM; in test [1] it was less than 45 nM.

As to `C[C@@H]1OCC2(CCN(c3cnc(Sc4ccc5ncn(Cc6ccncc6)c(=O)c5c4Cl)cn3)CC2)[C@@H]1N` [Example 39, 6-((5-((3S,4S)-4-amino-3-methyl-2-oxa-8-azaspiro[4.5]decan-8-yl)pyrazin-2-yl)thio)-5-chloro-3-(pyridin-4-ylmethyl)quinazolin-4(3H)-one], the half-maximal inhibitory concentration (IC50) at SHP2 (full length) was 3 to 100 nM; in test [1], 45 to 1500 nM.

For the compound `C[C@@H]1OCC2(CCN(c3cnc(Sc4ccc5ncn(Cc6ccc(F)cc6)c(=O)c5c4Cl)cn3)CC2)[C@@H]1N` [Example 40, 6-((5-((3S,4S)-4-amino-3-methyl-2-oxa-8-azaspiro[4.5]decan-8-yl)pyrazin-2-yl)thio)-5-chloro-3-(4-fluorobenzyl)quinazolin-4(3H)-one], the IC50 on SHP2 (full length) is less than 3 nM; in test [1], 45 to 1500 nM.

For `COc1ccc(Cn2cnc3ccc(Sc4cnc(N5CCC6(CC5)CO[C@@H](C)[C@H]6N)cn4)c(Cl)c3c2=O)cc1` [Example 41, 6-((5-((3S,4S)-4-amino-3-methyl-2-oxa-8-azaspiro[4.5]decan-8-yl)pyrazin-2-yl)thio)-5-chloro-3-(4-methoxybenzyl)quinazolin-4(3H)-one], the IC50 was less than 3 nM on SHP2 (full length) and less than 45 nM in test [1].

`C[C@@H]1OCC2(CCN(c3cnc(Sc4ccc5ncn(Cc6ccc7cc[nH]c7n6)c(=O)c5c4Cl)cn3)CC2)[C@@H]1N` [Example 42, 3-((1H-pyrrolo[2,3-b]pyridin-6-yl)methyl)-6-((5-((3S,4S)-4-amino-3-methyl-2-oxa-8-azaspiro[4.5]decan-8-yl)pyrazin-2-yl)thio)-5-chloroquinazolin-4(3H)-one]: the figures for the 50% inhibitory concentration (IC50) (on SHP2 (full length); in test [1]) were less than 3 nM and less than 45 nM, respectively.

`C[C@@H]1OCC2(CCN(c3cnc(Sc4ccc5ncn(Cc6ccccc6F)c(=O)c5c4Cl)cn3)CC2)[C@@H]1N` [Example 43, 6-((5-((3S,4S)-4-amino-3-methyl-2-oxa-8-azaspiro[4.5]decan-8-yl)pyrazin-2-yl)thio)-5-chloro-3-(2-fluorobenzyl)quinazolin-4(3H)-one]: the IC50 at SHP2 (full length) is less than 3 nM; in test [1] it was less than 45 nM.

In the case of `C[C@@H]1OCC2(CCN(c3cnc(Sc4ccc5ncn(Cc6cnccn6)c(=O)c5c4Cl)cn3)CC2)[C@@H]1N` [Example 44, 6-((5-((3S,4S)-4-amino-3-methyl-2-oxa-8-azaspiro[4.5]decan-8-yl)pyrazin-2-yl)thio)-5-chloro-3-(pyrazin-2-ylmethyl)quinazolin-4(3H)-one], the IC50 at SHP2 (full length) is less than 3 nM; in test [1], less than 45 nM.

For the compound `C[C@@H]1OCC2(CCN(c3cnc(Sc4ccc5ncn(Cc6ccncn6)c(=O)c5c4Cl)cn3)CC2)[C@@H]1N` [Example 45, 6-((5-((3S,4S)-4-amino-3-methyl-2-oxa-8-azaspiro[4.5]decan-8-yl)pyrazin-2-yl)thio)-5-chloro-3-(pyrimidin-4-ylmethyl)quinazolin-4(3H)-one], the concentration for half-maximal inhibition (IC50) is less than 3 nM at SHP2 (full length) and less than 45 nM in test [1].

For `C[C@@H]1OCC2(CCN(c3cnc(Sc4ccc5ncn(Cc6cncnc6)c(=O)c5c4Cl)cn3)CC2)[C@@H]1N` [Example 46, 6-((5-((3S,4S)-4-amino-3-methyl-2-oxa-8-azaspiro[4.5]decan-8-yl)pyrazin-2-yl)thio)-5-chloro-3-(pyrimidin-5-ylmethyl)quinazolin-4(3H)-one], the IC50 on SHP2 (full length) was 3 to 100 nM; in test [1], less than 45 nM.

With `C[C@@H]1OCC2(CCN(c3cnc(Sc4ccc5ncn(Cc6nc7ccccc7o6)c(=O)c5c4Cl)cn3)CC2)[C@@H]1N` [Example 47, 6-((5-((3S,4S)-4-amino-3-methyl-2-oxa-8-azaspiro[4.5]decan-8-yl)pyrazin-2-yl)thio)-3-(benzooxazol-2-ylmethyl)-5-chloroquinazolin-4(3H)-one], the results for the IC50 (at SHP2 (full length); in test [1]) were less than 3 nM and less than 45 nM, respectively.

As to `C[C@@H]1OCC2(CCN(c3cnc(Sc4ccc5ncn(Cc6ccc(N)nc6)c(=O)c5c4Cl)cn3)CC2)[C@@H]1N` [Example 48, 6-((5-((3S,4S)-4-amino-3-methyl-2-oxa-8-azaspiro[4.5]decan-8-yl)pyrazin-2-yl)thio)-3-((6-aminopyridin-3-yl)methyl)-5-chloroquinazolin-4(3H)-one], the half-maximal inhibitory concentration (IC50) is less than 3 nM at SHP2 (full length) and less than 45 nM in test [1].

(Values after patent publication US12029739B2, “SHP2 inhibitor and use thereof” (KANAPH THERAPEUTICS INC., priority 2021, dated 2024).)
